The text below walks through data of patent US9732080B2 (Vertex Pharmaceuticals Incorporated, priority 2006, dated 2017).

The target in the test is T1, ΔF508-CFTR (Homo sapiens, UniProt P13569, DEL508-508).
T1 construct: expressed in transfected cells
The test can be described thus: Membrane potential optical assay, identification of correction compounds (ΔF508-CFTR correction). The test is classed as cell-based. To be noted: PercentActivity; NIH3T3 mouse fibroblasts stably expressing ΔF508-CFTR; 16-24 hrs with compound; read-out: Binned Max Efficacy. An excerpt: Membrane potential optical methods for assaying ΔF508-CFTR modulation properties of compounds.
The assay utilizes fluorescent voltage sensing dyes to measure changes in membrane potential using a fluorescent plate reader (e.g., FLIPR III, Molecular Devices, Inc.) as a readout for increase in functional ΔF508-CFTR in NIH 3T3 cells. The driving force for the response is the creation of a chloride ion gradient in conjunction with channel activation by a single liquid addition step after the cells have previously been treated with compounds and subsequently loaded with a voltage sensing dye.
To identify small molecules that correct the trafficking defect associated with ΔF508-CFTR; a single-addition HTS assay format was developed. Assay Plates containing cells are incubated for ˜2-4 hours in tissue culture incubator at 37° C., 5% CO2, 90% humidity. Cells are then ready for compound exposure after adhering to the bottom of the assay plates.
The cells were incubated in serum-free medium for 16-24 firs in tissue culture incubator at 37° C., 5% CO2, 90% humidity in the presence or absence (negative control) of test compound. The cells were subsequently rinsed 3× with Krebs Ringers solution and loaded with a voltage sensing redistribution dye. To activate ΔF508-CFTR, 10 μM forskolin and the CFTR potentiator, genistein (20 μM), were added along with Cl^−-free medium to each well. The addition of Cl^−-free medium promoted Cl^− efflux in response to ΔF508-CFTR activation and the resulting membrane depolarization was optically monitored using voltage sensor dyes.
Bath Solution #1: (in mM) NaCl 160, KCl 4.5, CaCl2 2, MgCl2 1, HEPES 10, pH 7.4 with NaOH.
Chloride-free bath solution: Chloride salts in Bath Solution #1 are substituted with gluconate salts.
NIH3T3 mouse fibroblasts stably expressing ΔF508-CFTR are used for optical measurements of membrane potential. The cells are maintained at 37° C. in 5% CO2 and 90% humidity in Dulbecco's modified Eagle's medium supplemented with 2 mM glutamine, 10% fetal bovine serum, 1×NEAA, β-ME, 1× pen/strep, and 25 mM HEPES in 175 cm^2 culture flasks. For all optical assays, the cells were seeded at ˜20,000/well in 384-well matrigel-coated plates and cultured for 2 hrs at 37° C. before culturing at 27° C. for 24 hrs. for the potentiator assay. For the correction assays, the cells are cultured at 27° C. or 37° C. with and without compounds for 16-24 hours.

The structures appear in SMILES notation. Bounds are passed on as bounds.

T1 sequence (P13569 with tags, fused parts or gaps DEL508-508): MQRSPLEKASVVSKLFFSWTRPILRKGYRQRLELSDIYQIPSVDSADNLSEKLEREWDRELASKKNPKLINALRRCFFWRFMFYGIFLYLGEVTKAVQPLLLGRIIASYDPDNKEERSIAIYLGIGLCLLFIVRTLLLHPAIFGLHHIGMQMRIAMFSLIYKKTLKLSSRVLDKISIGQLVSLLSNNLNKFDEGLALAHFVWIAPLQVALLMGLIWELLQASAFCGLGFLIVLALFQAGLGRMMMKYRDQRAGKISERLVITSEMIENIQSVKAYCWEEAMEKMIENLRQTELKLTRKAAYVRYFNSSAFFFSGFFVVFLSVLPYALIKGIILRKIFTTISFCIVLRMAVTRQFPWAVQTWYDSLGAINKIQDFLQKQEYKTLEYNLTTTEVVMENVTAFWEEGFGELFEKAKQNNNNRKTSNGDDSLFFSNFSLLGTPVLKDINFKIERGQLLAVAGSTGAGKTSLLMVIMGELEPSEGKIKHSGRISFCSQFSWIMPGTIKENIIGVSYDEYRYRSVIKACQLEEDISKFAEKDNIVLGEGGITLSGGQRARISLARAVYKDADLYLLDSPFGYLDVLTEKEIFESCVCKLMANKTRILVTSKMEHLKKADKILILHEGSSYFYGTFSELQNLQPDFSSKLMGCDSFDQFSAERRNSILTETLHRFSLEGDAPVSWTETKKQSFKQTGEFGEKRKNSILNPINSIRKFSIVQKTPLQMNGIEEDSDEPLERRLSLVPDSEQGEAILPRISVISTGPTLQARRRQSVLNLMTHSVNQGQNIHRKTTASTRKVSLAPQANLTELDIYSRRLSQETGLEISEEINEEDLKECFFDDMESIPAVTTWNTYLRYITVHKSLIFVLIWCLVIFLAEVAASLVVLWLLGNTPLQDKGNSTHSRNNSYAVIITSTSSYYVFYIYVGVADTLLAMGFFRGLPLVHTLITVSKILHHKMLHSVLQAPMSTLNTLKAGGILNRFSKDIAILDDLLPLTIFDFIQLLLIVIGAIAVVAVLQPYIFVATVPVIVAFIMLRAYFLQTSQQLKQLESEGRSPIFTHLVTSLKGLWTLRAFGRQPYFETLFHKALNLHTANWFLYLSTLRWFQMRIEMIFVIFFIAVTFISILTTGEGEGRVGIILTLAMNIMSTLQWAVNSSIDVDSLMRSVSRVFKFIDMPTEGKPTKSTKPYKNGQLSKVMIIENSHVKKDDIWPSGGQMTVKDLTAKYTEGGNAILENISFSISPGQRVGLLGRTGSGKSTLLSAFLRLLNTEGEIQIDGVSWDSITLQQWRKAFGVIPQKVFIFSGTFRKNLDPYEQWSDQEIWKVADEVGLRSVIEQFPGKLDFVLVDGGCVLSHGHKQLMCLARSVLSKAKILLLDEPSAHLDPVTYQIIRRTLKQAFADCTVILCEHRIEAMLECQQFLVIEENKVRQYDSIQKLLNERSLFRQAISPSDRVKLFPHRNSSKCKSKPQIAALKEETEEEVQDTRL

`CC(C)(C)c1cc2nc(NC(=O)C3(c4ccc5c(c4)OCO5)CC3)ccc2[nH]1` [Compound 7]: the Emax lay in the range of 25 to 100%. Take `COc1ccc(C2(C(=O)Nc3ccc4[nH]c(C(C)(C)C)cc4n3)CC2)cc1` [Compound 2, N-(2-tert-butyl-1H-pyrrolo[3,2-b]pyridin-5-yl)-1-(4-methoxyphenyl)cyclopropanecarboxamide]: the Emax is 25 to 100%.

`CC1(c2cc3cc(NC(=O)C4(c5ccc6c(c5)OC(F)(F)O6)CC4)ncc3[nH]2)CC1` [Compound 10, 1-(2,2-difluorobenzo[d][1,3]dioxol-5-yl)-N-(2-(1-methylcyclopropyl)-1H-pyrrolo[2,3-c]pyridin-5-yl)cyclopropanecarboxamide]: the Emax was above 100%. Take `CC(C)(C)c1cc2nc(NC(=O)C3(c4ccc5c(c4)OC(F)(F)O5)CC3)ccc2[nH]1` [Compound 12, N-(2-tert-butyl-1H-pyrrolo[3,2-b]pyridin-5-yl)-1-(2,2-difluorobenzo[d][1,3]dioxol-5-yl)cyclopropanecarboxamide]: the Emax was above 100%.

On to `COc1cccc(C2(C(=O)Nc3cnc4[nH]c(C(C)(C)C)cc4c3)CC2)c1` [Compound 5], for which the Emax is 25 to 100%. For the molecule `O=C(Nc1ccc2cc[nH]c2n1)C1(c2ccc3c(c2)OCO3)CC1` [Compound 1, 1-(benzo[d][1,3]dioxol-5-yl)-N-(1H-pyrrolo[2,3-b]pyridin-6-yl)cyclopropanecarboxamide], the Emax was above 100%. Under `COc1ccc(C2(C(=O)Nc3cnc4[nH]c(C(C)(C)C)cc4c3)CC2)cc1` [Compound 3, N-(2-tert-butyl-1H-pyrrolo[2,3-b]pyridin-5-yl)-1-(4-methoxyphenyl)cyclopropanecarboxamide] stands 25 to 100%; under `CC(C)(C)c1cc2cc(NC(=O)C3(c4ccc5c(c4)OC(F)(F)O5)CC3)cnc2[nH]1` [Compound 13, N-(2-tert-butyl-1H-pyrrolo[2,3-b]pyridin-5-yl)-1-(2,2-difluorobenzo[d][1,3]dioxol-5-yl)cyclopropanecarboxamide], above 100%. For `CC(C)(C)c1cc2cc(NC(=O)C3(c4ccc5c(c4)OC(F)(F)O5)CC3)ncc2[nH]1` [Compound 14, N-(2-tert-butyl-1H-pyrrolo[2,3-c]pyridin-5-yl)-1-(2,2-difluorobenzo[d][1,3]dioxol-5-yl)cyclopropanecarboxamide], the Emax was above 100%. Under `COc1cccc(C2(C(=O)Nc3ccc4[nH]c(C(C)(C)C)cc4n3)CC2)c1` [Compound 4, N-(2-tert-butyl-1H-pyrrolo[3,2-b]pyridin-5-yl)-1-(3-methoxyphenyl)cyclopropanecarboxamide] stands 25 to 100%; under `CC(C)(C)c1cc2cc(NC(=O)C3(c4ccc5c(c4)OCO5)CC3)ncc2[nH]1` [Compound 8], 25 to 100%; under `CC(C)(C)c1cc2cc(NC(=O)C3(c4ccc5c(c4)OC(F)(F)O5)CC3)ncc2n1CCO` [Compound 15, N-(2-tert-butyl-1-(2-hydroxyethyl)-1H-pyrrolo[2,3-c]pyridin-5-yl)-1-(2,2-difiuorobenzo[d][1,3]dioxol-5-yl)cyclopropanecarboxamide], above 100%.

In the case of `CCc1cc2cc(NC(=O)C3(c4ccc5c(c4)OC(F)(F)O5)CC3)ncc2[nH]1` [Compound 9, 1-(2,2-difluorobenzo[d][1,3]dioxol-5-yl)-N-(2-ethyl-1H-pyrrolo[2,3-c]pyridin-5-yl)cyclopropanecarboxamide], the Emax was above 100%. On to `O=C(Nc1cc2cc(C3CCC3)[nH]c2cn1)C1(c2ccc3c(c2)OC(F)(F)O3)CC1` [Compound 11, N-(2-cyclobutyl-1H-pyrrolo[2,3-c]pyridin-5-yl)-1-(2,2-difluorobenzo[d][1,3]dioxol-5-yl)cyclopropanecarboxamide], for which the Emax is above 100%. Take `CC(C)(C)c1cc2cc(NC(=O)C3(c4ccc5c(c4)OCO5)CC3)cnc2[nH]1` [Compound 6]: the Emax is above 100%.
